The values that follow come from US11766416B2, “Compositions of β-aminoisobutyric acid and methods for use thereof” (Nanjing Nutrabuilding Bio-tech Co., Ltd., priority 2020, dated 2023).

Holding throughout (format): in vivo, C57BL/6 male mice
Test [1] is described as follows: Muscular (soleus) and hepatic glycogen content at end of study. The conditions noted are these: HFD-fed obese mice, 150 mg/kg/day oral, relative to same HFD, with or without exercise, without L-BAIBA. The protocol: (§1) 36 C57BL/6 male mice aged about 8 weeks, each having a body mass of approximately 21 g, were randomly assigned to six study groups (GA1, GA2, GB1, GB2, GB3, and GB4) of six mice each. Each animal's body weight is measured by a weight scale and recorded.
(§2) The total experimental time is 16 weeks, divided into two periods: an eight-week induction period and an eight-week treatment period.
(§3) Each study group consisted of 6 animals, and treatment details of the individual study groups are given below: • Group A1 (GA1): Normal mice, maintained on a normal diet (ND) for 8 weeks, receiving neither exercise nor L-BAIBA treatment. • Group A2 (GA2): Normal mice, maintained on a normal diet (ND) for 8 weeks, receiving only L-BAIBA treatment and no exercise. • Group B1 (GB1): Obese mice, maintained on a high-fat diet (HFD) for 8 weeks, receiving neither exercise nor L-BAIBA treatment. • Group B2 (GB2): Obese mice, maintained on HFD for 8 weeks, receiving only exercise and no L-BAIBA treatment. • Group B3 (GB3): Obese mice, maintained on HFD for 8 weeks, receiving only L-BAIBA treatment and no exercise. • Group B4 (GB4): Obese mice, maintained on HFD for 8 weeks, receiving both L-BAIBA treatment and exercise.
Animals receiving L-BAIBA received, via oral administration, 150 mg/kg body weight of L-BAIBA, dissolved in 10 mL/kg body weight of ultrapure water, per day. […]

Test [2] is described as follows: Oral glucose tolerance test (OGTT) on day 113. As to conditions: HFD-fed obese mice, 150 mg/kg/day oral, day 113, glucose 2 g/kg oral; relative to same HFD, with or without exercise, without L-BAIBA; FIGS. 6A-7. As to the method: as §1
(§4) The total experimental time is 16 weeks, divided into two periods: an eight-week induction period and an eight-week treatment period. […]
(§5) Throughout the study described in Example 1, glucose levels in each mouse's blood were measured weekly (week 9-16) on the starting day of every week, before the day's exercise and L-BAIBA dosing activities. […] Blood glucose levels were monitored pre-dose and at 15, 30, 60 and 120 minutes after administration of the glucose solution. […] The area under the curve (AUC) was calculated and expressed as percentage values.

Test [3] in a line: Body weight of high-fat diet obese mice, measured weekly. As to conditions: 150 mg/kg/day oral. The protocol: as §1, §2
as §3, with “and exercise. […]” for “and exercise.”
Throughout the study period, each mouse's body weight was measured weekly by a calibrated electronic digital weighing balance Sartorious BSA32025 (Sartorious AG, Göttingen, Germany). […]

A short description of test [4]: Blood metabolism-related biomarkers (TG, TCHO, LDL, VLDL) at end of study. The conditions noted are these: HFD-fed obese mice, 150 mg/kg/day oral, relative to same HFD, with or without exercise, without L-BAIBA. The protocol: as §1, §2, §3
Animals receiving L-BAIBA received, via oral administration, 150 mg/kg body weight of L-BAIBA, dissolved in 10 mL/kg body weight of ultrapure water, per day. Animals not receiving L-BAIBA were administered 10 mL/kg body weight of ultrapure water per day. All animals were maintained in a pathogen-free condition under a strict 12-hour alternate light/dark cycle with 12-15 cycles/hour of air exchange. All animals were provided with access to their respective feeds and water ad libitum. All animals were housed under controlled laboratory conditions of temperature and humidity at 23±2° C. and 50±10% RH.
At the end of the study described in Example 1, blood was collected from all test groups and various clinical parameters/biomarkers related to metabolism were determined: triglyceride (TG), total cholesterol (TCHO), low-density lipoprotein (LDL) and very low-density lipoprotein (VLDL).

The nature of test [5]: Weekly blood glucose level (tail vein, glucometer). The protocol:
as §1, §4, §5

Test [6] can be described thus: Serum insulin and leptin by ELISA (insulin and leptin resistance). As to conditions: HFD-fed obese mice, 150 mg/kg/day oral, end of study, relative to same HFD, with or without exercise, without L-BAIBA. The protocol: as §1, §2
as §3, with “and exercise. […]” for “and exercise.”
At the end of the study described in Example 1, serum levels of insulin and leptin were quantified in all treatment groups by standard ELISA methods. […]
(In general: ELISA stands for enzyme-linked immunosorbent assay.)

Turning to `C[C@@H](CN)C(=O)O` [L-BAIBA, L-β-aminoisobutyric acid], the hepatic glycogen content entry in test [1] (liver main lobe, FIG. 3A) was “higher”. Besides, the muscular glycogen content result in test [1] (soleus muscle, FIG. 3B) is recorded as “higher”. Besides, the “glucose tolerance (OGTT)” value in test [2] is given as “better glucose tolerance”. Further, the “body weight, GB3 relative to GB1 and GB2” value in test [3] (HFD obese mice, L-BAIBA only, no exercise (GB3), vs untreated (GB1) and exercise only (GB2), FIG. 1) is listed as “reduced body weight”. Moreover, in test [3] (HFD-fed obese mice, 8-week treatment, with or without exercise, relative to same HFD without L-BAIBA), the body weight result was “greater reduction in body weight”. Also, the “blood triglyceride (TG)” value in test [4] (FIG. 2A) was “lower levels”. Further, the “blood total cholesterol (TCHO)” value in test [4] (FIG. 2B) is reported as “lower levels”. Further, the “blood low-density lipoprotein (LDL)” value in test [4] (FIG. 2C) is listed as “lower levels”. Also, in test [4] (FIG. 2D), the “blood very low-density lipoprotein (VLDL)” value is reported as “lower levels”. Also, in test [5] (HFD obese mice, 150 mg/kg/day oral, weeks 9-16, compared with normal mice (GA1)), the “blood glucose level of obese mice over the experimental period” value is on record as “stable level, close to the level of normal mice (GA1)”. The blood glucose level entry in test [5] (mice receiving 150 mg/kg/day oral, weekly weeks 9-16, GB3 and GB4 relative to GB1 and GB2, FIGS. 5A, 5B) was “greater reduction in blood glucose level”. Besides, in test [6] (FIG. 4A), the “insulin resistance (serum insulin)” value is listed as “improved”. Also, the “leptin resistance (serum leptin)” value in test [6] (FIG. 4B) is “improved leptin resistance”.
